Measurements from US8183243B2, “Melanocortin receptor agonists” (LG Life Sciences Ltd., priority 2008, dated 2012).
pEC50: −log10 of the molar value. Like-named read-outs stand apart in the source and are kept apart here.

Target: T1, MC4R (Homo sapiens, UniProt P32245)
T1 construct: expressed in transfected cells; host or cells: HEK (Human Embryonic Kidney) permanent expression cell line HEK MC4R-Luc, co-expressing CRE-luciferase
Assay: MCR agonistic activity (luciferase assay / cAMP accumulation assay) on MC4R
Assay type: cell-based
Settings: HEK cell lines expressing MC4R, not said which
Method: Physiological activity of the compounds of the present invention was assessed by measuring agonistic activity as well as binding activity for melanocortin receptors (MCR) according to methods A and B explained as follows.
As one of the methods to measure MCR agonistic activity of the compound according to the present invention, the expression level of a marker gene (for example, luciferase) which increases proportionally according to the increase of cAMP content in the cell, was measured.
First, permanent expression HEK (Human Embryonic Kidney) cell lines (HEK MC1R-Luc, MC3R-Luc, MC4R-Luc or MC5R-Luc) expressing the MCR gene of each subtype together with luciferase gene (CRE-LUC) under the control of CRE (cAMP Response Element) were constructed. The above cell lines were incubated in an incubator with 6% CO2 atmosphere at 37° C. using selection medium, DMEM(Dulbecco's Modified Eagles Medium) containing 10% heat-inactivated fetal bovine serum (Gibco/BRL), 100 unit/ml, penicillin (Gibco/BRL), 100 unit/ml streptomycin (Gibco/BRL), and 200 μg/ml geneticin (G418) (Gibco/BRL). When the cell covered 70% of total surface of the culture dish with 100 mm diameter, the culture dish was rinsed one time with 10 ml Phosphate Buffered Saline(PBS) free of Ca^++ and Mg^++, and then 3 ml PBS solution containing 0.05% trypsin and 0.53 mM EDTA was added thereto. After the trypsin/EDTA solution was removed, the cell lines were incubated in an thermostatic incubator for 1 minute at 37° C., and resuspended in 10 ml selection medium and centrifuged for 5 minutes at 1500 rpm. The supernatant was discarded and the settled cells were resuspended in 5 ml selection medium free of Phenol Red. The resulting cell-suspension was plated onto each well of 96-well culture plates for Luminometer(Costar) with a concentration of 5×10^4 cell in 100 μl culture medium for each well and incubated in the incubator with 6% CO2 atmosphere at 37° C. for 18 hours. With MCR agonists (Example compounds) diluted stepwise using the above culture medium, the cells were treated under the condition of the final DMSO concentration not exceeding 1%, and incubated for 5 hours in the atmosphere of 6% CO2 at 37° C. Then, 50 μl Bright-Glo (Promega) was added to each well. After allowing the treated cells to be at room temperature for 15 minutes, luminescence was measured for each well by using luminometer (Victor). The level of luminescence induced by the stepwise-diluted agonist was converted to relative % value to those by the treatment of 10 nM NDP-MSH. The EC50 indicates the concentration of each agonist for inducing 50% of maximal luminescence by each agonist and this value was measured by a statistical software (Prizm).
B. cAMP Accumulation Assay
As another method to measure MCR agonistic activity of the compound according to the present invention, an increase of cAMP amount in the cell was measured.
First, permanent expression HEK (Human Embryonic Kidney) cell lines (HEK MC1R-Luc, MC3R-Luc, MC4R-Luc or MCSR-Luc) expressing the MCR gene of each subtype were plated onto each well of 24-well culture plates for Luminometer(Costar) with a concentration of 2×10^5 cell in 1 ml culture medium for each well, and then incubated in an incubator with 6% CO2 atmosphere at 37° C. for 24 hours. The medium was removed from each well followed by rinsing with 0.5 ml cold DMEM one time. With MCR agonists (Example compounds) diluted stepwise using 200 μl DMEM including 500 μM IBMX (isobutylmethylxanthine), the cells were treated under the condition of the final DMSO concentration not exceeding 1%, and incubated for 30 minutes in the atmosphere of 6% CO2 at 37° C. Then, the cAMP amount in each cell was measured using Amersham cAMP assay Kit (TRK432).
More specifically, 14.4 μl of 6M PCA (60%) was added to each well, and allowed to be in ice for 10 minutes, and 200 μl sample was taken from each well and transferred to microcentrifuge tube. […]

[1] = method A (CRE-luciferase) or B (cAMP accumulation), read-out: EC50 value, agonistic activity to MC4R (range per group of Examples)
[2] = specific activities of representative compounds, method A or B, read-out: EC50

T1 sequence (P32245 whole entry, species assumed): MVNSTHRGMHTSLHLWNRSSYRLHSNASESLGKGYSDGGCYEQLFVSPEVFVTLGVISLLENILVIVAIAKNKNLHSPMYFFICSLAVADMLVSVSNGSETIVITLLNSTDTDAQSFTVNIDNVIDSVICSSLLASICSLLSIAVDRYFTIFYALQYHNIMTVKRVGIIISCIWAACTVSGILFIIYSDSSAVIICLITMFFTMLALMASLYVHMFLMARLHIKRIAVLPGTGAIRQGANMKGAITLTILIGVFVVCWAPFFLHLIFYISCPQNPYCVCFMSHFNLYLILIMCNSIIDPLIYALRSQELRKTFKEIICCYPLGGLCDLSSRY

| Structure (SMILES) | pEC50 [1] | pEC50 [2] |
| --- | --- | --- |
| CN1CCN(C(=O)[C@H]2C[C@H](N(C(=O)[C@@H]3CCCO3)[C@H]3CC[C@@H](C)CC3)CN2C(=O)[C@@H]2CN(C(C)(C)C)C[C@H]2c2ccc(Cl)cc2)CC1 (relative stereo) [Example 35, (2S)-N-{(3S,5R)-1-{[(3S,4R)-1-tert-butyl-4-(4-chlorophenyl)pyrrolidin-3-yl]carbonyl}-5-[(4-methylpiperazin-1-yl)carbonyl]pyrrolidin-3-yl}-N-(cis-4-methylcyclohexyl)tetrahydrofuran-2-carboxamide] | 8.00 to 10.00 |  |
| CC(=O)N(C1CCC(C)(C)CC1)[C@H]1C[C@@H](C(=O)N2CCN(C)CC2)N(C(=O)[C@@H]2CN(C(C)(C)C)C[C@H]2c2ccc(Cl)cc2)C1 [Example 1, N-{(3S,5S)-1-{[(3S,4R)-1-tert-butyl-4-(4-chlorophenyl)pyrrolidin-3-yl]carbonyl}-5-[(4-methylpiperazin-1-yl)carbonyl]pyrrolidin-3-yl}-N-(4,4-dimethylcyclohexyl)acetamide] | 8.00 to 10.00 | 8.00 |
| CC(=O)N(C1CCC(C)(C)CC1)[C@H]1C[C@@H](C(=O)N2CCNCC2)N(C(=O)[C@@H]2CN(C(C)(C)C)C[C@H]2c2ccc(F)cc2F)C1 [Example 2, N-[(3S,5S)-1-{[(3S,4R)-1-tert-butyl-4-(2,4-difluorophenyl)pyrrolidin-3-yl]carbonyl}-5-(piperazin-1-ylcarbonyl)pyrrolidin-3-yl]-N-(4,4-dimethylcyclohexyl)acetamide] | 8.00 to 10.00 | 8.22 |
| CN1CCN(C(=O)[C@@H]2C[C@H](N(C(=O)[C@@H]3CCCO3)C3CCC(C)(C)CC3)CN2C(=O)[C@@H]2CN(C(C)(C)C)C[C@H]2c2ccc(Cl)cc2)CC1 [Example 3, (2S)-N-{(3S,5S)-1-{[(3S,4R)-1-tert-butyl-4-(4-chlorophenyl)pyrrolidin-3-yl]carbonyl}-5-[(4-methylpiperazin-1-yl)carbonyl]pyrrolidin-3-yl}-N-(4,4-dimethylcyclohexyl)tetrahydrofuran-2-carboxamide] | 8.00 to 10.00 | 8.52 |
| CN1CCN(C(=O)[C@@H]2C[C@H](N(C(=O)C(C)(C)CO)C3CCC(C)(C)CC3)CN2C(=O)[C@@H]2CN(C(C)(C)C)C[C@H]2c2ccc(Cl)cc2)CC1 [Example 4, N-{(3S,5S)-1-{[(3S,4R)-1-tert-butyl-4-(4-chlorophenyl)pyrrolidin-3-yl]carbonyl}-5-[(4-methylpiperazin-1-yl)carbonyl]pyrrolidine-3-yl}-N-(4,4-dimethylcyclohexyl)-3-hydroxy-2,2-dimethylpropanamide] | 8.00 to 10.00 | 9.70 |
| CC(=O)N(C1CCC(C)(C)CC1)[C@H]1C[C@@H](C(=O)N2CCN(C)CC2)N(C(=O)[C@@H]2CN(C(C)(C)C)C[C@H]2c2ccc(F)cc2F)C1 [Example 5, N-{(3S,5S)-1-{[(3S,4R)-1-tert-butyl-4-(2,4-difluorophenyl)pyrrolidin-3-yl]carbonyl}-5-[(4-methylpiperazin-1-yl)carbonyl]pyrrolidin-3-yl}-N-(4,4-dimethylcyclohexyl)acetamide] | 7.00 to 8.00 |  |
| CCN1CCN(C(=O)[C@@H]2C[C@H](N(C(C)=O)C3CCC(C)(C)CC3)CN2C(=O)[C@@H]2CN(C(C)(C)C)C[C@H]2c2ccc(F)cc2F)CC1 [Example 6, N-{(3S,5S)-1-{[(3S,4R)-1-tert-butyl-4-(2,4-difluorophenyl)pyrrolidin-3-yl]carbonyl}-5-[(4-ethylpiperazin-1-yl)carbonyl]pyrrolidin-3-yl}-N-(4,4-dimethylcyclohexyl)acetamide] | 7.00 to 8.00 |  |
| CC(=O)N(C1CCC(C)(C)CC1)[C@H]1C[C@@H](C(=O)N2CCN(C(C)C)CC2)N(C(=O)[C@@H]2CN(C(C)(C)C)C[C@H]2c2ccc(F)cc2F)C1 [Example 7, N-{(3S,5S)-1-{[(3S,4R)-1-tert-butyl-4-(2,4-difluorophenyl)pyrrolidin-3-yl]carbonyl}-5-[(4-isopropylpiperazin-1-yl)carbonyl]pyrrolidin-3-yl}-N-(4,4-dimethylcyclohexyl)acetamide] | 7.00 to 8.00 |  |
| CN1CCN(C(=O)[C@@H]2C[C@H](N(C(=O)[C@@H]3CCCO3)C3CCC(C)(C)CC3)CN2C(=O)[C@@H]2CN(C(C)(C)C)C[C@H]2c2ccc(F)cc2F)CC1 [Example 14, (2S)-N-{(3S,5S)-1-{[(3S,4R)-1-tert-butyl-4-(2,4-difluorophenyl)pyrrolidin-3-yl]carbonyl}-5-[(4-methylpiperazin-1-yl)carbonyl]pyrrolidin-3-yl}-N-(4,4-dimethylcyclohexyl)tetrahydrofuran-2-carboxamide] | 8.00 to 10.00 |  |

Results, then the compound that gave them:

| pEC50 [1] | pEC50 [2] | Structure (SMILES) |
| --- | --- | --- |
| 8.00 to 10.00 |  | CCN1CCN(C(=O)[C@@H]2C[C@H](N(C(C)=O)C3CCC(C)(C)CC3)CN2C(=O)[C@@H]2CN(C(C)(C)C)C[C@H]2c2ccc(Cl)cc2)CC1 [Example 8, N-{(3S,5S)-1-{[(3S,4R)-1-tert-butyl-4-(4-chlorophenyl)pyrrolidin-3-yl]carbonyl}-5-[(4-ethylpiperazin-1-yl)carbonyl]pyrrolidin-3-yl}-N-(4,4-dimethylcyclohexyl)acetamide] |
| 8.00 to 10.00 |  | CC(=O)N(C1CCC(C)(C)CC1)[C@H]1C[C@@H](C(=O)N2CCN(C(C)C)CC2)N(C(=O)[C@@H]2CN(C(C)(C)C)C[C@H]2c2ccc(Cl)cc2)C1 [Example 9, N-{(3S,5S)-1-{[(3S,4R)-1-tert-butyl-4-(4-chlorophenyl)pyrrolidin-3-yl]carbonyl}-5-[(4-isopropylpiperazin-1-yl)carbonyl]pyrrolidin-3-yl}-N-(4,4-dimethylcyclohexyl)acetamide] |
| 8.00 to 10.00 |  | CN1CCN(C(=O)[C@@H]2C[C@H](N(C(=O)C(C)(C)C)C3CCC(C)(C)CC3)CN2C(=O)[C@@H]2CN(C(C)(C)C)C[C@H]2c2ccc(Cl)cc2)CC1 [Example 10, N-{(3S,5S)-1-{[(3S,4R)-1-tert-butyl-4-(4-chlorophenyl)pyrrolidin-3-yl]carbonyl}-5-[(4-methylpiperazin-1-yl)carbonyl]pyrrolidin-3-yl}-N-(4,4-dimethylcyclohexyl)-2,2-dimethylpropanamide] |
| 8.00 to 10.00 |  | CN1CCN(C(=O)[C@@H]2C[C@H](N(C(=O)C(C)(C)C)C3CCC(C)(C)CC3)CN2C(=O)[C@@H]2CN(C(C)(C)C)C[C@H]2c2ccc(F)cc2F)CC1 [Example 11, N-{(3S,5S)-1-{[(3S,4R)-1-tert-butyl-4-(2,4-difluorophenyl)pyrrolidin-3-yl]carbonyl}-5-[(4-methylpiperazin-1-yl)carbonyl]pyrrolidin-3-yl}-N-(4,4-dimethylcyclohexyl)-2,2-dimethylpropanamide] |
| 8.00 to 10.00 |  | CCN1CCN(C(=O)[C@@H]2C[C@H](N(C(=O)[C@@H]3CCCO3)C3CCC(C)(C)CC3)CN2C(=O)[C@@H]2CN(C(C)(C)C)C[C@H]2c2ccc(Cl)cc2)CC1 [Example 12, (2S)-N-{(3S,5S)-1-{[(3S,4R)-1-tert-butyl-4-(4-chlorophenyl)pyrrolidin-3-yl]carbonyl}-5-[(4-ethylpiperazin-1-yl)carbonyl]pyrrolidin-3-yl}-N-(4,4-dimethylcyclohexyl)tetrahydrofuran-2-carboxamide] |
| 8.00 to 10.00 |  | CC(C)N1CCN(C(=O)[C@@H]2C[C@H](N(C(=O)[C@@H]3CCCO3)C3CCC(C)(C)CC3)CN2C(=O)[C@@H]2CN(C(C)(C)C)C[C@H]2c2ccc(Cl)cc2)CC1 [Example 13, (2S)-N-{(3S,5S)-1-{[(3S,4R)-1-tert-butyl-4-(4-chlorophenyl)pyrrolidin-3-yl]carbonyl}-5-[(4-isopropylpiperazin-1-yl)carbonyl]pyrrolidin-3-yl}-N-(4,4-dimethylcyclohexyl)tetrahydrofuran-2-carboxamide] |
